Experimental data as given in patent EP0052437A1, “Antibacterial compounds, processes for their preparation and compositions containing them” (BEECHAM GROUP PLC, priority 1980, dated 1982).
In brackets after ≈: the same amount, converted by molar mass.

Key:
Format in all cases: cell-based
[1] = test system: M. suipneumoniae PW/C/210; experiment: Anti-mycoplasmal in vitro MIC; conditions: Mesomycoplasma hyopneumoniae, 144 h, Friis broth solidified with 0.9% agarose, 6 days incubation at 37°C
M. suipneumoniae LABER = experiment: Anti-mycoplasmal in vitro MIC; conditions: Mesomycoplasma hyopneumoniae, 144 h, Friis broth solidified with 0.9% agarose, 6 days incubation at 37°C
M. suipneumoniae HK(2) = experiment: Anti-mycoplasmal in vitro MIC; conditions: Mesomycoplasma hyopneumoniae, 144 h, Friis broth solidified with 0.9% agarose, 6 days incubation at 37°C
M. hyorhinis ATCC 23234 = experiment: Anti-mycoplasmal in vitro MIC; conditions: Mesomycoplasma hyorhinis, ATCC23234, 144 h, Friis broth solidified with 0.9% agarose, 6 days incubation at 37°C
M. suipneumoniae UCD 1 = experiment: Anti-mycoplasmal in vitro MIC; conditions: Mesomycoplasma hyopneumoniae, UCD1, 144 h, Friis broth solidified with 0.9% agarose, 6 days incubation at 37°C
M. suipneumoniae TAM 6N = experiment: Anti-mycoplasmal in vitro MIC; conditions: Mesomycoplasma hyopneumoniae, TAM6N, 144 h, Friis broth solidified with 0.9% agarose, 6 days incubation at 37°C
M. pneumoniae ATCC 15492 = experiment: Anti-mycoplasmal in vitro MIC; conditions: Mycoplasmoides pneumoniae, ATCC15492, 144 h, Friis broth solidified with 0.9% agarose, 6 days incubation at 37°C
[2] = test system: M. suipneumoniae J2206/183b; experiment: Anti-mycoplasmal in vitro MIC; conditions: Mesomycoplasma hyopneumoniae, 144 h, Friis broth solidified with 0.9% agarose, 6 days incubation at 37°C
Bord. bronchiseptica BO9 = experiment: Veterinary bacteria MIC; conditions: Bordetella bronchiseptica, Diagnostic Sensitivity Test Agar, 18 hours at 37°C
Procedure: (§1) The values were determined using a two fold serial dilutions.in Diagnostic Sensitivity Test Agar with an inoculum of 10^4 organisms and incubation for 18 hours at 37°C.

Strep. uberis SPU1 = experiment: Veterinary bacteria MIC; conditions: Streptococcus uberis, Diagnostic Sensitivity Test Agar, 18 hours at 37°C
Procedure: as §1

E. Coli NCTC 10418 [3] = experiment: Veterinary bacteria MIC; conditions: Escherichia coli, NCTC10418, Diagnostic Sensitivity Test Agar, 18 hours at 37°C
Procedure: as §1

Staph. aureus Oxford [4] = experiment: Veterinary bacteria MIC; conditions: Staphylococcus aureus, Diagnostic Sensitivity Test Agar, 18 hours at 37°C
Procedure: as §1

Strep. agalactiae SPA1 = experiment: Veterinary bacteria MIC; conditions: Streptococcus agalactiae, Diagnostic Sensitivity Test Agar, 18 hours at 37°C
Procedure: as §1

Bord. bronchiseptica BO8 = experiment: Veterinary bacteria MIC; conditions: Bordetella bronchiseptica, Diagnostic Sensitivity Test Agar, 18 hours at 37°C
Procedure: as §1

Past. haemolytica PA5 = experiment: Veterinary bacteria MIC; conditions: Mannheimia haemolytica, Diagnostic Sensitivity Test Agar, 18 hours at 37°C
Procedure: as §1

S. dublin S7 = experiment: Veterinary bacteria MIC; conditions: Salmonella enterica, Diagnostic Sensitivity Test Agar, 18 hours at 37°C
Procedure: as §1

Past. multocida PA2 = experiment: Veterinary bacteria MIC; conditions: Pasteurella multocida, Diagnostic Sensitivity Test Agar, 18 hours at 37°C
Procedure: as §1

Staph. aureus 152 = experiment: Veterinary bacteria MIC; conditions: Staphylococcus aureus, Diagnostic Sensitivity Test Agar, 18 hours at 37°C
Procedure: as §1

[5] = test system: Pasteurella multocida 1633; experiment: Human bacteria MIC; conditions: nutrient agar with 5% chocolated horse blood, 18 hours at 37°C
Procedure: (§2) The values were determined by serial dilutions in nutrient agar with 5% chocolated horse blood after incubations for 18 hours at 37 °C.

[6] = test system: Ps. aeruginosa NCTC 10662; experiment: Human bacteria MIC; conditions: Pseudomonas aeruginosa, NCTC10662, nutrient agar with 5% chocolated horse blood, 18 hours at 37°C
Procedure: as §2

Staph. aureus Russell = experiment: Human bacteria MIC; conditions: Staphylococcus aureus, nutrient agar with 5% chocolated horse blood, 18 hours at 37°C
Procedure: as §2

E. coli ESS = experiment: Human bacteria MIC; conditions: Escherichia coli, nutrient agar with 5% chocolated horse blood, 18 hours at 37°C
Procedure: as §2

P. mirabilis 889 = experiment: Human bacteria MIC; conditions: Proteus mirabilis, nutrient agar with 5% chocolated horse blood, 18 hours at 37°C
Procedure: as §2

Staph. aureus W2827 = experiment: Human bacteria MIC; conditions: Staphylococcus aureus, nutrient agar with 5% chocolated horse blood, 18 hours at 37°C
Procedure: as §2

[7] = test system: Neisseria catarrhalis 1502; experiment: Human bacteria MIC; conditions: nutrient agar with 5% chocolated horse blood, 18 hours at 37°C
Procedure: as §2

E. Coli NCTC 10418 [8] = experiment: Human bacteria MIC; conditions: Escherichia coli, NCTC10418, nutrient agar with 5% chocolated horse blood, 18 hours at 37°C
Procedure: as §2

Sarcina lutea 8340 = experiment: Human bacteria MIC; conditions: Micrococcus luteus, nutrient agar with 5% chocolated horse blood, 18 hours at 37°C
Procedure: as §2

Staph. aureus Oxford [9] = experiment: Human bacteria MIC; conditions: Staphylococcus aureus, nutrient agar with 5% chocolated horse blood, 18 hours at 37°C
Procedure: as §2

K. aerogenes A = experiment: Human bacteria MIC; conditions: Klebsiella aerogenes, nutrient agar with 5% chocolated horse blood, 18 hours at 37°C
Procedure: as §2

Strep. faecalis I = experiment: Human bacteria MIC; conditions: Enterococcus faecalis, nutrient agar with 5% chocolated horse blood, 18 hours at 37°C
Procedure: as §2

Bacillus subtilis 6633 = experiment: Human bacteria MIC; conditions: nutrient agar with 5% chocolated horse blood, 18 hours at 37°C
Procedure: as §2

Strep. 641848-C = experiment: Human bacteria MIC; conditions: nutrient agar with 5% chocolated horse blood, 18 hours at 37°C
Procedure: as §2

[10] = test system: Corynebacterium xerosis 9755; experiment: Human bacteria MIC; conditions: nutrient agar with 5% chocolated horse blood, 18 hours at 37°C
Procedure: as §2

M. suipneumoniae Str. 11 = experiment: Anti-mycoplasmal in vitro MIC; conditions: Mesomycoplasma hyopneumoniae, 144 h, Friis broth solidified with 0.9% agarose, 6 days incubation at 37°C
[11] = test system: M. suipneumoniae NCTC 10110; experiment: Anti-mycoplasmal in vitro MIC; conditions: Mesomycoplasma hyopneumoniae, NCTC10110, 144 h, Friis broth solidified with 0.9% agarose, 6 days incubation at 37°C
[12] = test system: M. suipneumoniae ATCC 25095; experiment: Anti-mycoplasmal in vitro MIC; conditions: Mesomycoplasma hyopneumoniae, ATCC25095, 144 h, Friis broth solidified with 0.9% agarose, 6 days incubation at 37°C
M. dispar NCTC 10125 = experiment: Anti-mycoplasmal in vitro MIC; conditions: 144 h, Friis broth solidified with 0.9% agarose, 6 days incubation at 37°C

Compound | MIC [1] [µg/mL] | MIC (M. suipneumoniae LABER) [µg/mL] | MIC (M. suipneumoniae HK(2)) [µg/mL] | MIC (M. hyorhinis ATCC 23234) [µg/mL] | MIC (M. suipneumoniae UCD 1) [µg/mL] | MIC (M. suipneumoniae TAM 6N) [µg/mL] | MIC (M. pneumoniae ATCC 15492) [µg/mL] | MIC [2] [µg/mL] | MIC (Bord. bronchiseptica BO9) [µg/mL] | MIC (Strep. uberis SPU1) [µg/mL] | MIC (E. Coli NCTC 10418 [3]) [µg/mL] | MIC (Staph. aureus Oxford [4]) [µg/mL] | MIC (Strep. agalactiae SPA1) [µg/mL] | MIC (Bord. bronchiseptica BO8) [µg/mL] | MIC (Past. haemolytica PA5) [µg/mL] | MIC (S. dublin S7) [µg/mL] | MIC (Past. multocida PA2) [µg/mL] | MIC (Staph. aureus 152) [µg/mL] | MIC [5] [µg/mL] | MIC [6] [µg/mL] | other results
C/C(=C\C(=O)OC(C)c1ccc(C#N)cc1)CC1OCC(CC2OC2C(C)C(C)O)C(O)C1O (stereo not drawn) [Example 4, 1-(p-Cyanophenyl)ethyl monate A] | 1 (≈ 2.11 µM) | 1 (≈ 2.11 µM) | 2.5 (≈ 5.28 µM) | 0.5 (≈ 1.06 µM) | 1 (≈ 2.11 µM) | 2.5 (≈ 5.28 µM) | 5 (≈ 10.6 µM) | 2.5 (≈ 5.28 µM) | 20 (≈ 42.2 µM) | 1.25 (≈ 2.64 µM) | > 80 | 2.5 (≈ 5.28 µM) | 10 (≈ 21.1 µM) | 80 (≈ 169 µM) | 40 (≈ 84.5 µM) | > 80 | < 0.019 | 5 (≈ 10.6 µM) | 10 (≈ 21.1 µM) | > 100 | MIC (Staph. aureus Russell): 5 µg/mL (≈ 10.6 µM); MIC (E. coli ESS): 2.5 µg/mL (≈ 5.28 µM); MIC (P. mirabilis 889): > 100 µg/mL; MIC (Staph. aureus W2827): 5 µg/mL (≈ 10.6 µM); MIC [7]: 0.5 µg/mL (≈ 1.06 µM); MIC (E. Coli NCTC 10418 [8]): > 100 µg/mL; MIC (Sarcina lutea 8340): > 100 µg/mL; MIC (Staph. aureus Oxford [9]): 2.5 µg/mL (≈ 5.28 µM); MIC (K. aerogenes A): > 100 µg/mL; MIC (Strep. faecalis I): > 100 µg/mL; MIC (Bacillus subtilis 6633): 1 µg/mL (≈ 2.11 µM); MIC (Strep. 641848-C): 2.5 µg/mL (≈ 5.28 µM); MIC [10]: > 100 µg/mL; MIC (M. suipneumoniae Str. 11): 1 µg/mL (≈ 2.11 µM); MIC [11]: 2.5 µg/mL (≈ 5.28 µM); MIC [12]: 1 µg/mL (≈ 2.11 µM); MIC (M. dispar NCTC 10125): 0.5 µg/mL (≈ 1.06 µM)
C/C(=C\C(=O)OCc1cc(C#N)cc(C#N)c1)CC1OCC(CC2OC2C(C)C(C)O)C(O)C1O (stereo not drawn) [Example 6, 3,5-Dicyanobenzyl monate A] | 0.05 (≈ 0.103 µM) | 0.05 (≈ 0.103 µM) | 0.1 (≈ 0.206 µM) | 0.05 (≈ 0.103 µM) | 0.1 (≈ 0.206 µM) | 0.1 (≈ 0.206 µM) | 2.5 (≈ 5.16 µM) | 0.1 (≈ 0.206 µM) | 40 (≈ 82.6 µM) | 0.312 (≈ 0.644 µM) | > 80 | 5 (≈ 10.3 µM) | 0.625 (≈ 1.29 µM) | 80 (≈ 165 µM) | 10 (≈ 20.6 µM) | > 80 | 0.625 (≈ 1.29 µM) | 5 (≈ 10.3 µM) | 2.5 (≈ 5.16 µM) | > 100 | MIC (Staph. aureus Russell): 5 µg/mL (≈ 10.3 µM); MIC (E. coli ESS): 5 µg/mL (≈ 10.3 µM); MIC (P. mirabilis 889): 100 µg/mL (≈ 206 µM); MIC (Staph. aureus W2827): 5 µg/mL (≈ 10.3 µM); MIC [7]: 0.5 µg/mL (≈ 1.03 µM); MIC (E. Coli NCTC 10418 [8]): > 100 µg/mL; MIC (Sarcina lutea 8340): > 100 µg/mL; MIC (Staph. aureus Oxford [9]): 2.5 µg/mL (≈ 5.16 µM); MIC (K. aerogenes A): > 100 µg/mL; MIC (Strep. faecalis I): 100 µg/mL (≈ 206 µM); MIC (Bacillus subtilis 6633): 2.5 µg/mL (≈ 5.16 µM); MIC (Strep. 641848-C): 1 µg/mL (≈ 2.06 µM); MIC [10]: > 100 µg/mL; MIC (M. suipneumoniae Str. 11): 0.05 µg/mL (≈ 0.103 µM); MIC [11]: 0.1 µg/mL (≈ 0.206 µM); MIC [12]: 0.05 µg/mL (≈ 0.103 µM); MIC (M. dispar NCTC 10125): 0.05 µg/mL (≈ 0.103 µM)
C/C(=C\C(=O)OCc1ccc(C#N)cc1)CC1OCC(CC2OC2C(C)C(C)O)C(O)C1O (stereo not drawn) [Example 3, p-Cyanobenzyl monate A] | 0.1 (≈ 0.218 µM) | 0.1 (≈ 0.218 µM) | 0.25 (≈ 0.544 µM) | 0.1 (≈ 0.218 µM) | 0.25 (≈ 0.544 µM) | 0.25 (≈ 0.544 µM) | 0.25 (≈ 0.544 µM) | 0.25 (≈ 0.544 µM) | 10 (≈ 21.8 µM) | 0.07 (≈ 0.152 µM) | 80 (≈ 174 µM) | 0.312 (≈ 0.679 µM) | 1.25 (≈ 2.72 µM) | 20 (≈ 43.5 µM) | 2.5 (≈ 5.44 µM) | > 80 | 0.156 (≈ 0.339 µM) | 0.312 (≈ 0.679 µM) | 0.5 (≈ 1.09 µM) | > 100 | MIC (Staph. aureus Russell): 0.5 µg/mL (≈ 1.09 µM); MIC (E. coli ESS): 0.25 µg/mL (≈ 0.544 µM); MIC (P. mirabilis 889): 50 µg/mL (≈ 109 µM); MIC (Staph. aureus W2827): 0.5 µg/mL (≈ 1.09 µM); MIC [7]: 0.1 µg/mL (≈ 0.218 µM); MIC (E. Coli NCTC 10418 [8]): 50 µg/mL (≈ 109 µM); MIC (Sarcina lutea 8340): > 100 µg/mL; MIC (Staph. aureus Oxford [9]): 0.25 µg/mL (≈ 0.544 µM); MIC (K. aerogenes A): 50 µg/mL (≈ 109 µM); MIC (Strep. faecalis I): 100 µg/mL (≈ 218 µM); MIC (Bacillus subtilis 6633): 0.1 µg/mL (≈ 0.218 µM); MIC (Strep. 641848-C): 0.25 µg/mL (≈ 0.544 µM); MIC [10]: > 100 µg/mL; MIC (M. suipneumoniae Str. 11): 0.1 µg/mL (≈ 0.218 µM); MIC [11]: 0.25 µg/mL (≈ 0.544 µM); MIC [12]: 0.25 µg/mL (≈ 0.544 µM); MIC (M. dispar NCTC 10125): 0.05 µg/mL (≈ 0.109 µM)
